Values after ≈ are worked out from the molar mass of the structure shown.
Assays:
Assay in all cases: Bacterial growth minimal inhibitory concentration (microdilution, cation-adjusted Mueller-Hinton Broth)
Assay type in all cases: cell-based
[1] = system: E. coli ATCC25922; conditions: Escherichia coli, ATCC25922; quinolone-sensitive strain; read-out: MIC for E. coli ATCC25922
Method: (§1) Minimal Inhibitory Concentrations (MICs; mg/L) were determined in cation-adjusted Mueller-Hinton Broth by a microdilution method following the description given in “Methods for Dilution Antimicrobial Susceptibility Tests for Bacteria that Grow Aerobically”, Approved standard, 7th ed., a Clinical and Laboratory Standards Institute (CLSI) Document M7-A7, Wayne, Pa., USA (2006).
(§2) All Example compounds were tested against several Gram-positive and Gram-negative bacteria. […] K. pneumoniae A-651 is a multiply-resistant strain (in particular quinolone-resistant), while E. coli ATCC25922 and P. aeruginosa ATCC27853 are quinolone-sensitive strains.

[2] = system: K. pneumoniae A-651; conditions: Klebsiella pneumoniae, A651; multiply-resistant strain (in particular quinolone-resistant); read-out: MIC for K. Pneumoniae A-651
Method: as §1, §2

[3] = system: P. aeruginosa ATCC27853; conditions: Pseudomonas aeruginosa, ATCC27853, quinolone-sensitive strain; read-out: MIC for P. aeruginosa ATCC27853
Method: as §1, §2

| MIC [1] [µg/mL] | MIC [2] [µg/mL] | MIC [3] [µg/mL] | Structure (SMILES) |
| --- | --- | --- | --- |
| 2 (≈ 4.59 µM) | 2 (≈ 4.59 µM) | 4 (≈ 9.19 µM) | C[C@@](CCN1Cc2cc(C#CC#CC3(O)COC3)cn2C1=O)(C(=O)NO)S(C)(=O)=O [Example 4, (R)-N-hydroxy-4-(6-((3-hydroxyoxetan-3-yl)buta-1,3-diyn-1-yl)-3-oxo-1H-pyrrolo[1,2-c]imidazol-2(3H)-yl)-2-methyl-2-(methylsulfonyl)butanamide] |
| ≤ 0.063 | 0.125 (≈ 0.257 µM) | 0.5 (≈ 1.03 µM) | C[C@@](CCN1Cc2cc(C#Cc3ccc([C@@H]4C[C@H]4CO)cc3)cn2C1=O)(C(=O)NO)S(C)(=O)=O [Example 5, (R)-N-hydroxy-4-(6-((4-((1R,2R)-2-(hydroxymethyl)cyclopropyl)phenyl)ethynyl)-3-oxo-1H-pyrrolo[1,2-c]imidazol-2(3H)-yl)-2-methyl-2-(methylsulfonyl)butanamide] |
| 0.031 (≈ 0.0638 µM) | 0.125 (≈ 0.257 µM) | 0.5 (≈ 1.03 µM) | C[C@@](CCN1Cc2cc(C#Cc3ccc([C@H]4C[C@@H]4CO)cc3)cn2C1=O)(C(=O)NO)S(C)(=O)=O [Example 6, (R)-N-hydroxy-4-(6-((4-((1S,2S)-2-(hydroxymethyl)cyclopropyl)phenyl)ethynyl)-3-oxo-1H-pyrrolo[1,2-c]imidazol-2(3H)-yl)-2-methyl-2-(methylsulfonyl)butanamide] |
| 0.125 (≈ 0.257 µM) | 0.25 (≈ 0.515 µM) | 0.5 (≈ 1.03 µM) | C[C@@](CCN1Cc2cc(C#Cc3ccc(C4(CO)CC4)cc3)cn2C1=O)(C(=O)NO)S(C)(=O)=O [Example 7, (R)-N-hydroxy-4-(6-((4-(1-(hydroxymethyl)cyclopropyl)phenyl)ethynyl)-3-oxo-1H-pyrrolo[1,2-c]imidazol-2(3H)-yl)-2-methyl-2-(methylsulfonyl)butanamide] |
| 8 | 8 | 4 | C[C@@](CCN1Cc2cc(C#Cc3ccc(C4(CN)CC4)cc3)cn2C1=O)(C(=O)NO)S(C)(=O)=O.O=CO [Example 8, (R)-4-(6-((4-(1-(aminomethyl)cyclopropyl)phenyl)ethynyl)-3-oxo-1H-pyrrolo[1,2-c]imidazol-2(3H)-yl)-N-hydroxy-2-methyl-2-(methylsulfonyl)butanamide formate] |
| 0.25 (≈ 0.513 µM) | 0.5 (≈ 1.03 µM) | 0.5 (≈ 1.03 µM) | CC(C)(CO)c1ccc(C#Cc2cc3n(c2)C(=O)N(CC[C@](C)(C(=O)NO)S(C)(=O)=O)C3)cc1 [Example 9, (R)-N-hydroxy-4-(6-((4-(1-hydroxy-2-methylpropan-2-yl)phenyl)ethynyl)-3-oxo-1H-pyrrolo[1,2-c]imidazol-2(3H)-yl)-2-methyl-2-(methylsulfonyl)butanamide] |
| 0.25 (≈ 0.528 µM) | 0.25 (≈ 0.528 µM) | 0.5 (≈ 1.06 µM) | CC(C)(O)c1ccc(C#Cc2cc3n(c2)C(=O)N(CC[C@](C)(C(=O)NO)S(C)(=O)=O)C3)cc1 [Example 10, (R)-N-hydroxy-4-(6-((4-(2-hydroxypropan-2-yl)phenyl)ethynyl)-3-oxo-1H-pyrrolo[1,2-c]imidazol-2(3H)-yl)-2-methyl-2-(methylsulfonyl)butanamide] |
| 8 (≈ 18.9 µM) | 16 (≈ 37.8 µM) | 8 (≈ 18.9 µM) | C[C@@](CCN1Cc2cc(C#CC#C[C@H](O)CO)cn2C1=O)(C(=O)NO)S(C)(=O)=O [Example 11, (R)-4-(6-((S)-5,6-dihydroxyhexa-1,3-diyn-1-yl)-3-oxo-1H-pyrrolo[1,2-c]imidazol-2(3H)-yl)-N-hydroxy-2-methyl-2-(methylsulfonyl)butanamide] |
| 0.25 (≈ 0.559 µM) | 0.25 (≈ 0.559 µM) | 0.25 (≈ 0.559 µM) | C[C@@](CCN1Cc2cc(C#CC#CC[C@@H]3C[C@@H]3CO)cn2C1=O)(C(=O)NO)S(C)(=O)=O [Example 12, (R)-N-hydroxy-4-(6-(5-((1S,2S)-2-(hydroxymethyl)cyclopropyl)penta-1,3-diyn-1-yl)-3-oxo-1H-pyrrolo[1,2-c]imidazol-2(3H)-yl)-2-methyl-2-(methylsulfonyl)butanamide] |
